From patent US6596705B1, “Inhibition of L-selectin and P-selection mediated binding using heparin” (The Regents of the University of California, priority 1998, dated 2003)

Key:
P-selectin = assay: ELISA inhibition of P-selectin binding to immobilized SLe^x; conditions: average of 2-3 experiments, concentration from assumed average molecular weight
Description: (§1) ELISA inhibition assays were performed as previously reported (O'Connell et al., Proc. Natl. Acad. Sci. USA 93:5883-5887 (1996); Koenig et al., supra, 1997). Sterile 96 well ELISA plates were coated with 200 ng of polyacrylamide-SLe^x (Glycotech; Rockville Md.) by overnight incubation at […] in 100 μl of 50 mM sodium carbonate/bicarbonate buffer, pH 9.5. Plates were blocked for at least 2 hours at 4° C. with 200 μl of 20 mM Hepes, 125 mM NaCl, 2 mM CaCl2, 2 mM MgCl2, 1% protease-free BSA, pH 7.45 (osmolarity 290 milliosmoles) per well. During the blocking step, the selectin-Rg chimeras were separately preincubated at 4° C. with a peroxidase-conjugated goat anti-human IgG secondary antibody (Jackson Immunoresearch Laboratories, Inc.; West Grove Pa.) in assay buffer for approximately 1 hour.
(§2) Final selectin-Rg concentration was 20 nM, and the secondary antibody dilution was 1:1000. […]
(§3) These tubes were preincubated at 4° C. for 30 minutes, then added to ELISA plates, in duplicates, to a well volume of 100 μl. […] The absorbance at 492 nm was determined using SOFTMAX software and a microplate reader (Molecular Devices Inc., Menlo Park Calif.). Prior to curve fitting, the absorbance values were converted into percentages for comparative purposes using the formula: ({(average of duplicates)−(negative control)}/{(positive control)−(negative control)})×100) using the SOFTMAX software.

L-selectin = assay: ELISA inhibition of L-selectin binding to immobilized SLe^x; conditions: average of 2-3 experiments, concentration from assumed average molecular weight
Description: as §1, §2, §3

L-selectin, sequence (P14151 39-318 limits assumed): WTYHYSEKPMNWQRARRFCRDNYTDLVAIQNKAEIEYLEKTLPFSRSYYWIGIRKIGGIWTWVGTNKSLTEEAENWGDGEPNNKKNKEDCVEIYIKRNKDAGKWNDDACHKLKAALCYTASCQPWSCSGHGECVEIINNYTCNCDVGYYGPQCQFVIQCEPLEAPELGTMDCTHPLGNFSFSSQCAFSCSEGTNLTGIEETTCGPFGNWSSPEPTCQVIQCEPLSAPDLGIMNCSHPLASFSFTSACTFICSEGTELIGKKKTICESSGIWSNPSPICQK
P-selectin, sequence (P16109 42-195 limits assumed): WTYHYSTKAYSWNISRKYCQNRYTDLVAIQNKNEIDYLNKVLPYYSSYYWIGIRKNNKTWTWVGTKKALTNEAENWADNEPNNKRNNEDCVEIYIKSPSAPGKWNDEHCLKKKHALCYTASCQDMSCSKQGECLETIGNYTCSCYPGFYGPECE

In the case of “Siao2-3 Galβ1-4 (Fucal-3) GlcNAc [Sialyl Lewis^x]”, the IC50 (P-selectin) is reported as 520 µM and the IC50 (L-selectin) is reported as 600 µM.
